# Species: Rattus norvegicus
# Test: DrugMatrix - Regimen: Daily Repeat
# Format: toxicity, organism-based, Sprague-Dawley
# Design: regimen Daily Repeat, gender Male, age 6-8 weeks
# Settings: in vivo, po, 40 mg/kg, route oral GAVAGE, dose level Low, […]; for ABSOLUTE BASOPHIL / ABSOLUTE EOSINOPHIL / ABSOLUTE LYMPHOCYTE / ABSOLUTE MONOCYTE / ABSOLUTE SEGMENTED NEUTROPHIL / BASOPHIL / EOSINOPHIL / ERYTHROCYTE COUNT / HEMATOCRIT / HEMOGLOBIN / LEUKOCYTE COUNT / LYMPHOCYTE / MEAN CORPUSCULAR HEMOGLOBIN / MEAN CORPUSCULAR HEMOGLOBIN CONCENTRATION / MEAN CORPUSCULAR VOLUME / MONOCYTE / NEUTROPHIL / NUCLEATED RED BLOOD CELLS / PLATELET COUNT: tissue Blood; for ALANINE AMINOTRANSFERASE / ALBUMIN / ALKALINE PHOSPHATASE / ASPARTATE AMINOTRANSFERASE / BLOOD UREA NITROGEN / CARBON DIOXIDE / CHLORIDE / CHOLESTEROL / CREATINE PHOSPHOKINASE / CREATININE / GLUCOSE / LACTATE DEHYDROGENASE / LIPASE / PHOSPHORUS / POTASSIUM / SODIUM / TOTAL BILIRUBIN / TOTAL PROTEIN / URIC ACID: tissue Plasma
smiles,measurement,setting,value
CC(c1cc2ccccc2s1)N(O)C(N)=O (stereo unspecified) [ZILEUTON],ABSOLUTE BASOPHIL,"72 h, time 3 day",0 CELLS/uL
same,ABSOLUTE EOSINOPHIL,"72 h, time 3 day",103.33 CELLS/uL
same,ABSOLUTE LYMPHOCYTE,"72 h, time 3 day",13682 CELLS/uL
same,ABSOLUTE MONOCYTE,"72 h, time 3 day",0 CELLS/uL
same,ABSOLUTE SEGMENTED NEUTROPHIL,"72 h, time 3 day",1348 CELLS/uL
same,BASOPHIL,"72 h, time 3 day",0%
same,EOSINOPHIL,"72 h, time 3 day",0.67%
same,ERYTHROCYTE COUNT,"72 h, time 3 day",5.58 x10E6/uL
same,HEMATOCRIT,"72 h, time 3 day",34.97%
same,HEMOGLOBIN,"72 h, time 3 day",13.77 G/DL
same,LEUKOCYTE COUNT,"72 h, time 3 day",15.13 x10E3/uL
same,LYMPHOCYTE,"72 h, time 3 day",90.33%
same,MEAN CORPUSCULAR HEMOGLOBIN,"72 h, time 3 day",24.67 pg
same,MEAN CORPUSCULAR HEMOGLOBIN CONCENTRATION,"72 h, time 3 day",39.37 G/DL
same,MEAN CORPUSCULAR VOLUME,"72 h, time 3 day",62.67 fL
same,MONOCYTE,"72 h, time 3 day",0%
same,NEUTROPHIL,"72 h, time 3 day",9%
same,NUCLEATED RED BLOOD CELLS,"72 h, time 3 day",0 /100WBC
same,PLATELET COUNT,"72 h, time 3 day",1217.67 x10E3/uL
same,ALANINE AMINOTRANSFERASE,"72 h, time 3 day",75.33 u/L
same,ALBUMIN,"72 h, time 3 day",3.93 G/DL
same,ALKALINE PHOSPHATASE,"72 h, time 3 day",442 u/L
same,ASPARTATE AMINOTRANSFERASE,"72 h, time 3 day",87.67 u/L
same,BLOOD UREA NITROGEN,"72 h, time 3 day",14 mg/dL
same,CARBON DIOXIDE,"72 h, time 3 day",32.33 mmol/L
same,CHLORIDE,"72 h, time 3 day",100 MEQ/L
same,CHOLESTEROL,"72 h, time 3 day",66.67 mg/dL
same,CREATINE PHOSPHOKINASE,"72 h, time 3 day",201.33 u/L
same,CREATININE,"72 h, time 3 day",0.14 mg/dL
same,GLUCOSE,"72 h, time 3 day",160 mg/dL
same,LACTATE DEHYDROGENASE,"72 h, time 3 day",148.33 u/L
same,LIPASE,"72 h, time 3 day",10.67 u/L
same,PHOSPHORUS,"72 h, time 3 day",10.8 mg/dL
same,POTASSIUM,"72 h, time 3 day",6.7 MEQ/L
same,SODIUM,"72 h, time 3 day",140.3 MEQ/L
same,TOTAL BILIRUBIN,"72 h, time 3 day",0.17 mg/dL
same,TOTAL PROTEIN,"72 h, time 3 day",5.37 G/DL
same,URIC ACID,"72 h, time 3 day",1.53 mg/dL
same,ABSOLUTE BASOPHIL,"120 h, time 5 day",0 CELLS/uL
same,ABSOLUTE EOSINOPHIL,"120 h, time 5 day",0 CELLS/uL
same,ABSOLUTE LYMPHOCYTE,"120 h, time 5 day",9935.67 CELLS/uL
same,ABSOLUTE MONOCYTE,"120 h, time 5 day",247 CELLS/uL
same,ABSOLUTE SEGMENTED NEUTROPHIL,"120 h, time 5 day",1084 CELLS/uL
same,BASOPHIL,"120 h, time 5 day",0%
same,EOSINOPHIL,"120 h, time 5 day",0%
same,ERYTHROCYTE COUNT,"120 h, time 5 day",5.6 x10E6/uL
same,HEMATOCRIT,"120 h, time 5 day",34.1%
same,HEMOGLOBIN,"120 h, time 5 day",13.83 G/DL
same,LEUKOCYTE COUNT,"120 h, time 5 day",11.27 x10E3/uL
same,LYMPHOCYTE,"120 h, time 5 day",89%
same,MEAN CORPUSCULAR HEMOGLOBIN,"120 h, time 5 day",24.77 pg
same,MEAN CORPUSCULAR HEMOGLOBIN CONCENTRATION,"120 h, time 5 day",40.57 G/DL
same,MEAN CORPUSCULAR VOLUME,"120 h, time 5 day",60.97 fL
same,MONOCYTE,"120 h, time 5 day",2%
same,NEUTROPHIL,"120 h, time 5 day",9%
same,NUCLEATED RED BLOOD CELLS,"120 h, time 5 day",0 /100WBC
same,PLATELET COUNT,"120 h, time 5 day",1094 x10E3/uL
same,ALANINE AMINOTRANSFERASE,"120 h, time 5 day",62 u/L
same,ALBUMIN,"120 h, time 5 day",4.23 G/DL
same,ALKALINE PHOSPHATASE,"120 h, time 5 day",479.33 u/L
same,ASPARTATE AMINOTRANSFERASE,"120 h, time 5 day",79.33 u/L
same,BLOOD UREA NITROGEN,"120 h, time 5 day",13.67 mg/dL
same,CARBON DIOXIDE,"120 h, time 5 day",32 mmol/L
same,CHLORIDE,"120 h, time 5 day",100.67 MEQ/L
same,CHOLESTEROL,"120 h, time 5 day",62 mg/dL
same,CREATINE PHOSPHOKINASE,"120 h, time 5 day",165.33 u/L
same,CREATININE,"120 h, time 5 day",0.2 mg/dL
same,GLUCOSE,"120 h, time 5 day",145 mg/dL
same,LACTATE DEHYDROGENASE,"120 h, time 5 day",111.67 u/L
same,LIPASE,"120 h, time 5 day",11 u/L
same,PHOSPHORUS,"120 h, time 5 day",10.6 mg/dL
same,POTASSIUM,"120 h, time 5 day",6.47 MEQ/L
same,SODIUM,"120 h, time 5 day",141.17 MEQ/L
same,TOTAL BILIRUBIN,"120 h, time 5 day",0.17 mg/dL
same,TOTAL PROTEIN,"120 h, time 5 day",5.67 G/DL
same,URIC ACID,"120 h, time 5 day",1.47 mg/dL

# Reference: ChEMBL document CHEMBL3885881, “DrugMatrix”
